Reference: US20250221989A1, “PHARMACEUTICAL COMPOSITION, USE THEREOF, AND METHOD FOR TREATING CANCER” (Genfleet Therapeutics (Shanghai) Inc., priority 2022, published 2025)
Marks after values point to notes of the source that are not given here.

Columns and labels:
[1] = tested on: Human non-small cell lung cancer cells LU99; test: Cell survival rate of LU99 cells under drug combination, Cell Titer-Glo; format: cell-based; conditions: 120 h
Protocol: (§1) The cell survival rate (%) after the drug combinations was calculated by the formula: cell survival rate=(1−(RLU of DMSO control−RLU of treatment)/(RLU of DMSO control−RLU of blank control))×100%. The DMSO control was a vehicle control with no drugs, and the blank control was a medium control with no drugs and vehicles.
(§2) The value corresponding to the coordinates is the cell survival rate of the combination groups with corresponding concentrations of the two drugs.
(§3) The effect of the drug combinations on the tumor cells was evaluated by statistical methods. The statistical software used was R systems, and the statistical models were Bliss, HSA, Loewe, and ZIP. A synergic value>5 indicates a synergic effect, a synergic value>10 indicates a significant synergic effect, a synergic value<−5 indicates an antagonistic effect, and a synergic value<−10 indicates a significant antagonistic effect. The final efficacy of the drug combinations was further judged by the synergic value.
(§4) Human non-small cell lung cancer cells LU99 were plated into a 384-well plate at 600 cells/well. […] After 120 h, the cell viability was measured by Cell Titer-Glo method. The Cell Titer-Glo reagent was added at 30 μL/well. The plate was shaken for 2 min and left to stand for 10 min. The RLU value was read on the Envision system.
as §4

[2] = tested on: Human rectal adenocarcinoma cells SW837; test: Cell survival rate of SW837 cells under drug combination, Cell Titer-Glo; format: cell-based; conditions: 120 h
Protocol: as §1, §2, §3
as §4, with “rectal adenocarcinoma” for “non-small cell lung cancer”, “SW837” for “LU99”, “800” for “600”
as §4, with “rectal adenocarcinoma” for “non-small cell lung cancer”, “SW837” for “LU99”, “800” for “600”

[3] = tested on: Human rectal adenocarcinoma cells SW1463; test: Cell survival rate of SW1463 cells under drug combination, Cell Titer-Glo; format: cell-based; conditions: 120 h
Protocol: as §1, §2, §3
(§5) After 120 h, the cell viability was measured by Cell Titer-Glo method. The Cell Titer-Glo reagent was added at 30 μL/well. The plate was shaken for 2 min and left to stand for 10 min. The RLU value was read on the Envision system.

[4] = tested on: Human non-small cell lung cancer cells SW1573; test: Cell survival rate of SW1573 cells under drug combination, Cell Titer-Glo; format: cell-based; conditions: 120 h
Protocol: as §1, §2, §3, §5

[5] = tested on: NCI-H2122 human non-small cell lung cancer model; test: In vivo anti-tumor evaluation in NCI-H2122 human non-small cell lung cancer model; set-up: species or system BALB/c nude mice
Protocol: During the study, the health of the animals was observed daily. If there was a 10% weight loss in the animals, the administration dose was halved; if there was a 15% weight loss, the […] until a normal body weight was restored; or if the tumor volume in the animals exceeded 2,000 mm^3, the mouse was euthanized immediately. If the health condition met the following criteria, euthanasia was performed by the veterinarian:
BALB/c nude mice, aged 6-8 weeks, female, purchased from Beijing Vital River Laboratory Animal Technology Co., Ltd., Certificate No. 20170011008676, and housed in an SPF-grade environment.
NCI-H2122 cells were cultured in an RPMI 1640 medium containing 10% of FBS and 1% of penicillin-streptomycin in an incubator at 37° C. and 5% CO2. […] When the cells were in the logarithmic growth phase and the confluence reached […], the cells were collected and counted. The cells were collected and adjusted to a final concentration of 2.0×10^6 cells/mL. Mice were grafted subcutaneously at the right dorsal region in a volume of 0.15 mL/3×10^5 cells/mouse. When the tumors grew to an average size of about 242 mm^3 (D5 after grafting), 32 tumor-bearing mice were selected, randomized into 4 groups of 8 mice each as per the tumor volume and the body weight, and treated according to the administration regimen shown in Table 1. The dose in mice was 10 mL/kg. The mice were weighed on an electronic balance twice weekly and the tumor volume was measured with a vernier caliper twice weekly. The study was ended on D17 after grafting, and the mice were euthanized after tumor volume measurement.
Tumor volume (TV)=(L×W^2)/2, where L denotes the long diameter of the tumor, and W is the short diameter of the tumor.
TWI=(1−TWtreatment/Dx/TWcontrol/Dx)×100%, where TWcontrol denotes the average tumor weight (g) of the control group, and TWtreatment denotes the average tumor weight (g) of the treatment group.
RCBW (%)=(BWi−BW0)/BW0×100%, where BWi is the body weight of a mouse on a specific day and BW0 is the body weight of the mouse at the baseline.
All experimental data analysis and graphing were performed using GraphPad Prism software (GraphPad Software). Tumor volumes and the body weights of the animals in all groups were statistically compared using two-way ANOVA, Dunnett's multiple comparisons test. Tumor weights of the groups at the endpoint were statistically compared using one-way ANOVA, Dunnett's multiple comparisons test. P<0.05 denotes a statistically significant difference. The tumor volume and weight and body weight of animals are expressed by mean±standard error (SEM).

[6] = tested on: Human non-small cell lung cancer cells NCI-H2122; test: Cell survival rate of NCI-H2122 cells under drug combination, Cell Titer-Glo; format: cell-based; conditions: 120 h
Protocol: as §1
The value corresponding to the coordinates is the cell survival rate of the combination groups with corresponding concentrations of the two drugs. For example, in FIG. 1, when the horizontal coordinate read is 0 nM and the vertical coordinate read is 10.03 nM, the value corresponding to the coordinates is 86.1.
as §3
Human non-small cell lung cancer cells NCI-H2122 were plated into a 384-well plate at 600 cells/well. […] After 120 h, the cell viability was measured by Cell Titer-Glo method. […] The RLU value was read on the Envision system.

[7] = tested on: mouse colon cancer CT26 KRAS G12C KI cell subcutaneous graft tumor model; test: In vivo anti-tumor evaluation in mouse CT26 KRASG12C KI subcutaneous graft tumor model
Protocol: The animals and the main evaluation indexes were the same as those of Example 8.
Preparation: the compound of the formula (II) was prepared in a vehicle of 5% DMSO+10% Solutol HS 15+85% (6% HP—β-CD); mPD1 was prepared in PBS.
On day 12 after cell inoculation (DO), the grouping and treatment were started after the mean tumor volume reached 69 mm^3. 32 tumor-bearing mice were selected, randomized into 4 groups of 8 mice each as per the tumor volume and the body weight, and treated according to the administration regimen shown in Table 3. The administration volume in mice was 10 mL/kg. The mice were weighed on an electronic balance twice weekly and the tumor volume was measured with a vernier caliper twice weekly.
The main evaluation indexes were tumor volume, TGI, TWI, and RCBW.

[8] = Day 17, compound of formula (II) 10 mpk p.o. q.d., cetuximab 1 mpk i.p. biw
[9] = after 12 days treatment, mean ± SEM, compound of formula (II) 10 mpk p.o. q.d., cetuximab 1 mpk i.p. biw
[10] = Day 33, compound of formula (II) 3 mpk (D 0-9) & 1 mpk (D 10-20) p.o. q.d., mPD1 10 mpk i.p. biw
[11] = after 21 days treatment, compound of formula (II) 3 mpk (D 0-9) & 1 mpk (D 10-20) p.o. q.d., mPD1 10 mpk i.p. biw

**Q.** For `Cc1nc(NC(=O)N2CCC[C@H]2C(N)=O)sc1-c1ccnc(C(C)(C)C(F)(F)F)c1` [BYL719, Alpelisib, reference compound], which cell survival rate ([1]; LU99, Example 1, 1000 nM BYL719 alone) is on record?
**A.** 62.6%

**Q.** And the cell survival rate ([2]; SW837, Example 2, 10000 nM BYL719 alone)?
**A.** 62.9%

**Q.** With `C=CC(=O)N1CCN2c3c(c(=O)n(-c4c(C)ccnc4C(C)C)c4nc(-c5c(O)cccc5F)c(Cl)cc34)N(C)C(=O)[C@H]2C1` [Compound of formula (II), (4aR,8R)-3-acryloyl-11-chloro-10-(2-fluoro-6-hydroxyphenyl)-8-(2-isopropyl-4-methylpyridin-3-yl)-6-methyl-2,3,4,4a,6,8-hexahydro-1H-pyrazino[1′,2′: 4,5] pyrazino[2,3-c][1,8]naphthyridine-5,7-dione] as the molecule, how does the cell survival rate ([3]; SW1463, Example 5, 31.69 nM compound of formula (II) alone) read?
**A.** 43.2%

**Q.** And the cell survival rate ([4]; SW1573, Example 6, 100 nM compound of formula (II) alone)?
**A.** 86.4%

**Q.** What about the TGI [5, 8] of the same molecule?
**A.** 73.81%

**Q.** What about the TWI [5, 8] of the same molecule?
**A.** 49.37%

**Q.** What about the “Body weight After grafting Day 17” value [5, 9] of the same molecule?
**A.** 20.97 ± 0.38 g

**Q.** What about the “Tumor volume After grafting Day17” value [5, 9] of the same molecule?
**A.** 479.14 ± 58.84*** mm^3

**Q.** And the “Body weight After grafting Day 5” value ([5]; baseline, mean ± SEM)?
**A.** 21.16 ± 0.47 g

**Q.** And the “Tumor weight After grafting Day 17” value ([5]; endpoint, mean ± SEM, compound of formula (II) 10 mpk p.o. q.d., cetuximab 1 mpk i.p. biw)?
**A.** 0.30 ± 0.04 g

**Q.** And the cell survival rate ([1]; LU99, Example 1, 100 nM compound of formula (II) alone)?
**A.** 83%

**Q.** And the cell survival rate ([1]; LU99, Example 3, 100 nM compound of formula (II) alone)?
**A.** 83.8%

**Q.** What about the cell survival rate ([1]; LU99, FIG. 1, coordinates 0 nM / 10.03 nM, stated as compound of formula (II) alone (BYL719 0 nM)) of the same molecule?
**A.** 86.1%

**Q.** What about the cell survival rate ([2]; SW837, Example 2, 31.69 nM compound of formula (II) alone) of the same molecule?
**A.** 60.2%

**Q.** What about the cell survival rate ([2]; SW837, Example 4, 31.69 nM compound of formula (II) alone) of the same molecule?
**A.** 56.2%

**Q.** What about the cell survival rate ([6]; NCI-H2122, Example 7, 3.17 nM compound of formula (II) alone) of the same molecule?
**A.** 60.7%

**Q.** And the “tumor inhibitory effect (in words)” value ([7]; CT26 KRAS G12C KI subcutaneous graft tumor model)?
**A.** mild tumor inhibitory effects

**Q.** And the TGI [7, 10]?
**A.** 46.74%

**Q.** What about the TWI [7, 10] of the same molecule?
**A.** 35.38%

**Q.** And the “Body weight After grafting Day 33” value [7, 11]?
**A.** 22.76 ± 0.37 g

**Q.** What about the “Tumor volume Day 33 after grafting” value [7, 11] of the same molecule?
**A.** 1065.38 ± 251.12 mm^3

**Q.** What about the “Tumor volume Day 33 after grafting” value ([7]; after 21 days treatment, compound of formula (II) 3 mpk (D 0-9) & 1 mpk (D 10-20) p.o. q.d., mPD1 10 mpk i.p. biw, listed as compound of formula (II)) of the same molecule?
**A.** 1,065 mm^3

**Q.** And the “Tumor volume After grafting Day 12” value ([7]; baseline at grouping (D0), mean ± SEM, n=8)?
**A.** 68.75 ± 6.65 mm^3

**Q.** And the “Body weight Day 12 after grafting” value ([7]; baseline, mean ± SEM)?
**A.** 21.29 ± 0.29 g

**Q.** What about the “Tumor weight After grafting Day 33” value ([7]; endpoint, compound of formula (II) 3 mpk (D 0-9) & 1 mpk (D 10-20) p.o. q.d., mPD1 10 mpk i.p. biw) of the same molecule?
**A.** 1.84 ± 1.12 g

**Q.** And the T/C ([7]; mean tumor volume at end of study, compound of formula (II) 3 mpk (D 0-9) & 1 mpk (D 10-20) p.o. q.d., mPD1 10 mpk i.p. biw)?
**A.** 54.92%

**Q.** How did the cell survival rate ([6]; NCI-H2122, Example 7, 31.69 nM SY-5609 alone) turn out when `CC1(C)CC[C@H](Nc2ncc(C(F)(F)F)c(-c3c[nH]c4c(P(C)(C)=O)c(C#N)ccc34)n2)CN1` [SY-5609, reference compound] was run?
**A.** 57.5%

**Q.** `CS(=O)(=O)N1CCN(Cc2cc3nc(-c4cccc5[nH]ncc45)nc(N4CCOCC4)c3s2)CC1` [GDC0941, Pictilisib, reference compound] was tested. Which cell survival rate ([3]; SW1463, Example 5, 1000 nM GDC0941 alone) did it give?
**A.** 64.6%

**Q.** And the cell survival rate ([4]; SW1573, Example 6, 3164 nM GDC0941 alone)?
**A.** 46%

**Q.** What about the cell survival rate ([1]; LU99, Example 3, 100 nM GDC0941 alone) of the same molecule?
**A.** 85.4%

**Q.** And the cell survival rate ([2]; SW837, Example 4, 1000 nM GDC0941 alone)?
**A.** 67.6%
